Experimental data published in PubChem BioAssay (NCI).
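Tested at 5 concentrations; 48 h exposure; 96-well plates; endpoints linearly interpolated, else capped at highest concentration. At the TGI there is no net growth.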

Columns and labels:
Assay in all cases: inhibition of tumour cell growth, NCI panel, 48 h
MDA-MB-435 = tested on: MDA-MB-435
KM12 colon = tested on: KM12 colon
NCI-H460 lung = tested on: NCI-H460 lung
T-47D breast = tested on: T-47D breast
SNB-75 CNS = tested on: SNB-75 CNS
MDA-MB-231 breast = tested on: MDA-MB-231 breast
UACC-62 melanoma = tested on: UACC-62 melanoma
SK-MEL-2 melanoma = tested on: SK-MEL-2 melanoma
HS 578T breast = tested on: HS 578T breast
786-0 renal = tested on: 786-0 renal
OVCAR-8 ovarian = tested on: OVCAR-8 ovarian
ACHN renal = tested on: ACHN renal
HCT-116 colon = tested on: HCT-116 colon
MOLT-4 leukemia = tested on: MOLT-4 leukemia
UO-31 renal = tested on: UO-31 renal
TK-10 renal = tested on: TK-10 renal
SN12C renal = tested on: SN12C renal
HT29 colon = tested on: HT29 colon
SK-OV-3 ovarian = tested on: SK-OV-3 ovarian
PC-3 prostate = tested on: PC-3 prostate
OVCAR-4 ovarian = tested on: OVCAR-4 ovarian
UACC-257 melanoma = tested on: UACC-257 melanoma
HCC-2998 colon = tested on: HCC-2998 colon
HL-60(TB) leukemia = tested on: HL-60(TB) leukemia
NCI-H226 lung = tested on: NCI-H226 lung
EKVX NSCLC = tested on: EKVX NSCLC
MDA-N = tested on: MDA-N
HCT-15 colon = tested on: HCT-15 colon
NCI-H522 lung = tested on: NCI-H522 lung
SF-268 CNS = tested on: SF-268 CNS
A549 NSCLC = tested on: A549 NSCLC
NCI/ADR-RES ovarian = tested on: NCI/ADR-RES ovarian
SR leukemia = tested on: SR leukemia
RXF 393 renal = tested on: RXF 393 renal
RPMI-8226 leukemia = tested on: RPMI-8226 leukemia
HOP-62 NSCLC = tested on: HOP-62 NSCLC
U251 CNS = tested on: U251 CNS
SF-539 CNS = tested on: SF-539 CNS
SK-MEL-28 melanoma = tested on: SK-MEL-28 melanoma
NCI-H23 lung = tested on: NCI-H23 lung
COLO 205 colon = tested on: COLO 205 colon
K-562 leukemia = tested on: K-562 leukemia
IGROV1 ovarian = tested on: IGROV1 ovarian
SNB-19 CNS = tested on: SNB-19 CNS
OVCAR-3 ovarian = tested on: OVCAR-3 ovarian
CAKI-1 renal = tested on: CAKI-1 renal
DU-145 prostate = tested on: DU-145 prostate
OVCAR-5 ovarian = tested on: OVCAR-5 ovarian
HOP-92 NSCLC = tested on: HOP-92 NSCLC
M14 melanoma = tested on: M14 melanoma
SW-620 colon = tested on: SW-620 colon
MCF7 breast = tested on: MCF7 breast
SK-MEL-5 melanoma = tested on: SK-MEL-5 melanoma
BT-549 breast = tested on: BT-549 breast
LOX IMVI melanoma = tested on: LOX IMVI melanoma
SF-295 CNS = tested on: SF-295 CNS
MALME-3M melanoma = tested on: MALME-3M melanoma
CCRF-CEM leukemia = tested on: CCRF-CEM leukemia
A498 renal = tested on: A498 renal

## C[C@]12CC/C(=N\O)C=C1CC[C@@H]1[C@@H]2CC[C@]2(C)C(=N/O)/C(=C/c3ccncc3)C[C@@H]12
MDA-MB-435
  TGI: 95.8 µM
KM12 colon
  TGI: > 100 µM
NCI-H460 lung
  TGI: 85 µM
T-47D breast
  TGI: 88.5 µM
SNB-75 CNS
  TGI: > 100 µM
MDA-MB-231 breast
  TGI: > 100 µM
UACC-62 melanoma
  TGI: 35 µM
SK-MEL-2 melanoma
  TGI: 34.2 µM
HS 578T breast
  TGI: > 100 µM
786-0 renal
  TGI: > 100 µM
OVCAR-8 ovarian
  TGI: > 100 µM
ACHN renal
  TGI: > 100 µM
HCT-116 colon
  TGI: 47.4 µM
MOLT-4 leukemia
  TGI: > 100 µM
UO-31 renal
  TGI: 24.3 µM
TK-10 renal
  TGI: > 100 µM
SN12C renal
  TGI: > 100 µM
HT29 colon
  TGI: 42.1 µM
SK-OV-3 ovarian
  TGI: > 100 µM
PC-3 prostate
  TGI: 62.6 µM
OVCAR-4 ovarian
  TGI: > 100 µM
UACC-257 melanoma
  TGI: 80.2 µM
HCC-2998 colon
  TGI: 59.7 µM
HL-60(TB) leukemia
  TGI: 5.09 µM
NCI-H226 lung
  TGI: 87.3 µM
EKVX NSCLC
  TGI: > 100 µM
MDA-N
  TGI: > 100 µM
HCT-15 colon
  TGI: > 100 µM
NCI-H522 lung
  TGI: 99.2 µM
SF-268 CNS
  TGI: > 100 µM
A549 NSCLC
  TGI: > 100 µM
NCI/ADR-RES ovarian
  TGI: > 100 µM
SR leukemia
  TGI: 62.2 µM
RXF 393 renal
  TGI: > 100 µM
RPMI-8226 leukemia
  TGI: 42.7 µM
HOP-62 NSCLC
  TGI: > 100 µM
U251 CNS
  TGI: > 100 µM
SF-539 CNS
  TGI: > 100 µM
SK-MEL-28 melanoma
  TGI: > 100 µM
NCI-H23 lung
  TGI: > 100 µM
COLO 205 colon
  TGI: > 100 µM
K-562 leukemia
  TGI: > 100 µM
IGROV1 ovarian
  TGI: > 100 µM
SNB-19 CNS
  TGI: > 100 µM
OVCAR-3 ovarian
  TGI: 72.3 µM
CAKI-1 renal
  TGI: > 100 µM
DU-145 prostate
  TGI: > 100 µM
OVCAR-5 ovarian
  TGI: > 100 µM
HOP-92 NSCLC
  TGI: > 100 µM
M14 melanoma
  TGI: 34 µM
SW-620 colon
  TGI: > 100 µM
MCF7 breast
  TGI: 67.9 µM
SK-MEL-5 melanoma
  TGI: 23 µM
BT-549 breast
  TGI: > 100 µM
LOX IMVI melanoma
  TGI: > 100 µM
SF-295 CNS
  TGI: > 100 µM
MALME-3M melanoma
  TGI: > 100 µM

## Cc1nn(C(=O)c2ccncc2)c2c1C(c1ccc([N+](=O)[O-])cc1)SC(N)=N2 (stereo not drawn)
MDA-MB-435
  TGI: > 100 µM
KM12 colon
  TGI: > 100 µM
NCI-H460 lung
  TGI: > 100 µM
T-47D breast
  TGI: > 100 µM
SNB-75 CNS
  TGI: > 100 µM
MDA-MB-231 breast
  TGI: > 100 µM
CCRF-CEM leukemia
  TGI: > 100 µM
UACC-62 melanoma
  TGI: > 100 µM
SK-MEL-2 melanoma
  TGI: > 100 µM
HS 578T breast
  TGI: > 100 µM
786-0 renal
  TGI: > 100 µM
OVCAR-8 ovarian
  TGI: > 100 µM
ACHN renal
  TGI: > 100 µM
HCT-116 colon
  TGI: > 100 µM
MOLT-4 leukemia
  TGI: > 100 µM
UO-31 renal
  TGI: > 100 µM
TK-10 renal
  TGI: > 100 µM
SN12C renal
  TGI: > 100 µM
HT29 colon
  TGI: > 100 µM
SK-OV-3 ovarian
  TGI: > 100 µM
PC-3 prostate
  TGI: > 100 µM
OVCAR-4 ovarian
  TGI: > 100 µM
A498 renal
  TGI: > 100 µM
UACC-257 melanoma
  TGI: > 100 µM
HL-60(TB) leukemia
  TGI: > 100 µM
NCI-H226 lung
  TGI: > 100 µM
EKVX NSCLC
  TGI: > 100 µM
MDA-N
  TGI: > 100 µM
HCT-15 colon
  TGI: > 100 µM
SF-268 CNS
  TGI: > 100 µM
A549 NSCLC
  TGI: > 100 µM
NCI/ADR-RES ovarian
  TGI: > 100 µM
SR leukemia
  TGI: > 100 µM
RXF 393 renal
  TGI: > 100 µM
RPMI-8226 leukemia
  TGI: > 100 µM
HOP-62 NSCLC
  TGI: > 100 µM
U251 CNS
  TGI: > 100 µM
SF-539 CNS
  TGI: > 100 µM
SK-MEL-28 melanoma
  TGI: > 100 µM
NCI-H23 lung
  TGI: > 100 µM
COLO 205 colon
  TGI: > 100 µM
K-562 leukemia
  TGI: > 100 µM
IGROV1 ovarian
  TGI: > 100 µM
SNB-19 CNS
  TGI: > 100 µM
OVCAR-3 ovarian
  TGI: > 100 µM
DU-145 prostate
  TGI: > 100 µM
OVCAR-5 ovarian
  TGI: > 100 µM
HOP-92 NSCLC
  TGI: > 100 µM
M14 melanoma
  TGI: > 100 µM
SW-620 colon
  TGI: > 100 µM
MCF7 breast
  TGI: > 100 µM
SK-MEL-5 melanoma
  TGI: > 100 µM
BT-549 breast
  TGI: > 100 µM
LOX IMVI melanoma
  TGI: > 100 µM
SF-295 CNS
  TGI: > 100 µM
MALME-3M melanoma
  TGI: > 100 µM
